Source: the supplement of paper PMC10307832

How the values were obtained:
Experiment in all cases: relative viability (nuclei count vs DMSO), 5 days (fraction); higher = more cells survive
[1] = compound: C1CNCCC1C2=CC(=NN2)C3=CC=NC=C3 + Nc1ncn([C@H]2C[C@H](O)[C@@H](CO)O2)c(=O)n1 [Decitabine] (partner 2 µM)
Summary of the method: (§1)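 Lung cancer cell lines, seeded in 1536-well plates, were treated the following day by pin tool with a single drug or with five library-drug doses (not always all listed) in √10 steps on top of a fixed anchor-drug dose. Cells were fixed and nuclei stained in one step after 5 days, and nuclei were counted. Relative viability is the nuclei count for treated wells divided by that for vehicle wells, reported as medians of duplicate plates.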

[2] = compound: C1CNCCC1C2=CC(=NN2)C3=CC=NC=C3 + COc1cccc2cc(-c3nc([C@H]4CC[C@H](C(=O)O)CC4)n4ncnc(N)c34)[nH]c12 [OSI-027] (partner 0.5 µM)
Summary of the method: as §1

[3] = compound: C[C@@H](N)c1ccc(C(=O)Nc2ccnc3[nH]ccc23)cc1 + CC1(C)CCC(c2ccc(Cl)cc2)=C(CN2CCN(c3ccc(C(=O)NS(=O)(=O)c4ccc(N[C@H](CCN5CCOCC5)CSc5ccccc5)c(S(=O)(=O)C(F)(F)F)c4)cc3)CC2)C1 [Navitoclax] (partner 0.5 µM)
Summary of the method: as §1

[4] = compound: C[C@@H](N)c1ccc(C(=O)Nc2ccnc3[nH]ccc23)cc1 + NC(=O)Nc1cc(-c2cccc(F)c2)sc1C(=O)N[C@H]1CCCNC1 [AZD7762] (partner 0.2 µM)
Summary of the method: as §1

Cell Line	relative viability ([1]; first compound 0.08 µM)	relative viability ([1]; first compound 0.8 µM)	relative viability ([1]; first compound 2.53 µM)	relative viability ([1]; first compound 8 µM)	relative viability ([2]; first compound 0.08 µM)	relative viability ([2]; first compound 0.8 µM)	relative viability ([2]; first compound 2.53 µM)	relative viability ([2]; first compound 8 µM)	relative viability ([3]; first compound 0.04 µM)	relative viability ([3]; first compound 0.1265 µM)	relative viability ([3]; first compound 0.4 µM)	relative viability ([3]; first compound 4 µM)	relative viability ([4]; first compound 0.04 µM)	relative viability ([4]; first compound 0.1265 µM)	relative viability ([4]; first compound 0.4 µM)	relative viability ([4]; first compound 1.265 µM)	relative viability ([4]; first compound 4 µM)	relative viability ([3]; first compound 1.265 µM)
NCI-H1355	0.374	0.36	0.395	0.354	0.446	0.372	0.472	0.476	1.01	0.986	1.04	0.748	0.761	0.819	0.901	0.91	0.871	–
EKVX	0.291	–	0.318	0.323	0.646	0.72	0.734	0.718	0.914	1.15	1.32	0.807	0.708	0.714	0.896	0.745	0.707	1.07
NCI-H441	0.226	0.255	0.243	0.248	0.536	0.769	0.736	0.867	0.571	0.546	0.477	0.571	1.29	0.841	1.49	1.21	1.13	0.624
NCI-H1975	0.369	0.355	0.399	0.363	0.703	0.778	0.774	0.777	1.13	0.978	0.995	0.434	0.593	0.613	0.688	0.513	0.434	0.652
HCC-78	0.677	–	0.637	0.743	0.344	0.359	0.354	0.383	1.08	0.79	1.2	0.782	0.798	0.624	0.788	0.856	0.477	1.11
NCI-H2085	0.526	–	0.578	0.531	0.818	0.515	0.682	0.935	1.23	1.14	1.19	1	0.947	0.914	0.96	1.13	1.09	1.09
H3255	0.532	–	0.674	0.587	0.52	0.629	0.577	0.759	0.554	0.846	0.769	0.45	0.929	1.07	1.11	1.07	0.724	0.575
NCI-H2087	0.339	0.279	0.267	0.292	0.471	0.616	0.619	0.573	0.911	0.917	0.903	0.855	1.29	1.06	1.07	1.06	1.08	0.903
LC-2-ad	0.682	0.791	0.868	0.789	–	0.868	0.936	0.908	0.398	0.566	0.585	0.262	0.763	0.787	0.823	0.787	0.599	0.346
